Measured values as given in patent publication US10793927B2, “Separation of lignin and sugars from biomass pre-treatment liquors” (Stichting Energieonderzoek Centrum Nederland, priority 2015, dated 2020).

Test: Solubility test of xylose in solvent systems suitable as organosolv treatment liquid
Type: physicochemical
Settings: 20° C., stirred 24 h, based on total weight of the xylose added
Experimental: The solubility of xylose (>99% pure, VWR) in different solvent systems, that are suitable to be used as treatment liquid during organosolv, is tested. Xylose was used as representative of all monomeric sugars, as it is the most abundant carbohydrate found in hemicellulose present in hardwoods and herbaceous biomass and thus in corresponding organosolv liquors. The indicated amount of xylose was added to each solvent system at 20° C. and the suspension was mechanically stirred for 24 h. Hereafter, the saturated solution containing remaining xylose was allowed to settle for 3 h and the liquid was removed. The residue was dried and the amount of undissolved xylose was determined.

O=C[C@H](O)[C@@H](O)[C@H](O)CO [xylose]
xylose not dissolved (acetone (100%), 2.7 wt % xylose added): 99.1 wt %
xylose not dissolved (ethanol (100%), 2.5 wt % xylose added): 82.2 wt %
xylose not dissolved (water/acetone 1.9/98.1 (w/w), 2.7 wt % xylose added): 99.1 wt %
xylose not dissolved (water/acetone 4.9/95.1 (w/w), 2.7 wt % xylose added): 93.0 wt %
xylose not dissolved (water/acetone 8.4/91.6 (w/w), 2.0 wt % xylose added): 79.1 wt %
xylose not dissolved (water/acetone 9.9/90.1 (w/w), 2.3 wt % xylose added): 80.2 wt %
xylose not dissolved (water/ethanol 4.3/95.7 (w/w), 2.2 wt % xylose added): 49.7 wt %
xylose not dissolved (water/ethanol 4.7/95.3 (w/w), 2.3 wt % xylose added): 46.2 wt %
xylose not dissolved (water/ethanol 7.8/92.2 (w/w), 2.3 wt % xylose added): 16.6 wt %
xylose not dissolved (water/ethanol 9.7/90.3 (w/w), 2.3 wt % xylose added): 0.0 wt %
